# Data: the supplement of paper PMC10307832
# How the values were obtained:
# Experiment in all cases: relative viability (nuclei count vs DMSO), 5 days (fraction); higher = more cells survive
# NCI-H1915 = test system: NCI-H1915
# Outline: (§1)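 Relative viability is defined as nuclei in treated wells over nuclei in vehicle wells. Duplicate plates were run and medians reported. Lung cancer cell lines in 1536-well plates were dosed by pin tool one day after seeding, with one drug or with a fixed anchor-drug dose plus five library-drug doses (not always all listed) in √10 steps, and nuclei were counted after 5 days.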
# NCI-H3122 = test system: NCI-H3122
# Outline: as §1
# ChaGo-K-1 = test system: ChaGo-K-1
# Outline: as §1
# NCI-H1755 = test system: NCI-H1755
# Outline: as §1
# ABC-1 = test system: ABC-1
# Outline: as §1
# HCC-15 = test system: HCC-15
# Outline: as §1
# EMC-BAC-2 = test system: EMC-BAC-2
# Outline: as §1
# HCC-78 = test system: HCC-78
# Outline: as §1
# LXF-289 = test system: LXF-289
# Outline: as §1
# NCI-H322M = test system: NCI-H322M
# Outline: as §1
# NCI-H2126 = test system: NCI-H2126
# Outline: as §1
# NCI-H441 = test system: NCI-H441
# Outline: as §1
# HOP-62 = test system: HOP-62
# Outline: as §1
# NCI-H1666 = test system: NCI-H1666
# Outline: as §1
# CAL-12T = test system: CAL-12T
# Outline: as §1
# NCI-H2085 = test system: NCI-H2085
# Outline: as §1
# NCI-H1975 = test system: NCI-H1975
# Outline: as §1
# NCI-H358 = test system: NCI-H358
# Outline: as §1
# EPLC-272H = test system: EPLC-272H
# Outline: as §1
smiles,measurement,setting,value
O=c1cc(-c2cccc3c2Sc2ccccc2S3)oc(N2CCOCC2)c1 + NC(=O)Nc1cc(-c2cccc(F)c2)sc1C(=O)N[C@H]1CCCNC1 [AZD7762] (partner 0.2 µM),relative viability,NCI-H1915; first compound 0.08 µM,0.716
same,relative viability,NCI-H1915; first compound 0.253 µM,0.761
same,relative viability,NCI-H1915; first compound 0.8 µM,0.795
same,relative viability,NCI-H1915; first compound 2.53 µM,0.681
same,relative viability,NCI-H1915; first compound 8 µM,0.716
same,relative viability,NCI-H3122; first compound 0.08 µM,1.02
same,relative viability,NCI-H3122; first compound 0.253 µM,1.06
same,relative viability,NCI-H3122; first compound 0.8 µM,1.03
same,relative viability,NCI-H3122; first compound 2.53 µM,0.933
same,relative viability,NCI-H3122; first compound 8 µM,1.04
same,relative viability,ChaGo-K-1; first compound 0.08 µM,0.827
same,relative viability,ChaGo-K-1; first compound 0.253 µM,0.942
same,relative viability,ChaGo-K-1; first compound 0.8 µM,0.779
same,relative viability,ChaGo-K-1; first compound 2.53 µM,0.889
same,relative viability,ChaGo-K-1; first compound 8 µM,0.975
same,relative viability,NCI-H1755; first compound 0.08 µM,0.535
same,relative viability,NCI-H1755; first compound 0.253 µM,0.453
same,relative viability,NCI-H1755; first compound 0.8 µM,0.439
same,relative viability,NCI-H1755; first compound 2.53 µM,0.566
same,relative viability,NCI-H1755; first compound 8 µM,0.418
same,relative viability,ABC-1; first compound 0.08 µM,0.738
same,relative viability,ABC-1; first compound 0.253 µM,0.7
same,relative viability,ABC-1; first compound 0.8 µM,0.714
same,relative viability,ABC-1; first compound 2.53 µM,1
same,relative viability,ABC-1; first compound 8 µM,0.875
same,relative viability,HCC-15; first compound 0.08 µM,1.22
same,relative viability,HCC-15; first compound 0.253 µM,1.51
same,relative viability,HCC-15; first compound 0.8 µM,1.18
same,relative viability,HCC-15; first compound 2.53 µM,1.18
same,relative viability,HCC-15; first compound 8 µM,1.28
same,relative viability,EMC-BAC-2; first compound 0.08 µM,1.06
same,relative viability,EMC-BAC-2; first compound 0.253 µM,1.37
same,relative viability,EMC-BAC-2; first compound 0.8 µM,0.952
same,relative viability,EMC-BAC-2; first compound 2.53 µM,1.11
same,relative viability,EMC-BAC-2; first compound 8 µM,1.2
same,relative viability,HCC-78; first compound 0.08 µM,0.624
same,relative viability,HCC-78; first compound 0.253 µM,0.643
same,relative viability,HCC-78; first compound 0.8 µM,0.472
same,relative viability,HCC-78; first compound 2.53 µM,0.614
same,relative viability,HCC-78; first compound 8 µM,0.655
same,relative viability,LXF-289; first compound 0.08 µM,1.11
same,relative viability,LXF-289; first compound 0.253 µM,1.18
same,relative viability,LXF-289; first compound 0.8 µM,1.15
same,relative viability,LXF-289; first compound 2.53 µM,1.09
same,relative viability,LXF-289; first compound 8 µM,1.12
same,relative viability,NCI-H322M; first compound 0.08 µM,0.665
same,relative viability,NCI-H322M; first compound 0.253 µM,0.537
same,relative viability,NCI-H322M; first compound 0.8 µM,0.51
same,relative viability,NCI-H322M; first compound 2.53 µM,0.429
same,relative viability,NCI-H322M; first compound 8 µM,0.534
same,relative viability,NCI-H2126; first compound 0.08 µM,1.02
same,relative viability,NCI-H2126; first compound 0.253 µM,1.16
same,relative viability,NCI-H2126; first compound 0.8 µM,1.04
same,relative viability,NCI-H2126; first compound 2.53 µM,1.03
same,relative viability,NCI-H2126; first compound 8 µM,1.04
same,relative viability,NCI-H441; first compound 0.08 µM,0.965
same,relative viability,NCI-H441; first compound 0.253 µM,1.24
same,relative viability,NCI-H441; first compound 0.8 µM,1.18
same,relative viability,NCI-H441; first compound 2.53 µM,0.941
same,relative viability,NCI-H441; first compound 8 µM,1.21
same,relative viability,HOP-62; first compound 0.08 µM,0.477
same,relative viability,HOP-62; first compound 0.253 µM,0.61
same,relative viability,HOP-62; first compound 0.8 µM,0.869
same,relative viability,HOP-62; first compound 2.53 µM,0.493
same,relative viability,HOP-62; first compound 8 µM,0.944
same,relative viability,NCI-H1666; first compound 0.08 µM,0.76
same,relative viability,NCI-H1666; first compound 0.253 µM,0.928
same,relative viability,NCI-H1666; first compound 0.8 µM,0.781
same,relative viability,NCI-H1666; first compound 2.53 µM,0.773
same,relative viability,NCI-H1666; first compound 8 µM,0.85
same,relative viability,CAL-12T; first compound 0.08 µM,0.585
same,relative viability,CAL-12T; first compound 0.253 µM,0.555
same,relative viability,CAL-12T; first compound 0.8 µM,0.601
same,relative viability,CAL-12T; first compound 2.53 µM,0.626
same,relative viability,CAL-12T; first compound 8 µM,0.642
same,relative viability,NCI-H2085; first compound 0.08 µM,1.01
same,relative viability,NCI-H2085; first compound 0.253 µM,1.17
same,relative viability,NCI-H2085; first compound 0.8 µM,1.02
same,relative viability,NCI-H2085; first compound 2.53 µM,0.836
same,relative viability,NCI-H2085; first compound 8 µM,0.614
same,relative viability,NCI-H1975; first compound 0.08 µM,0.601
same,relative viability,NCI-H1975; first compound 0.253 µM,0.733
same,relative viability,NCI-H1975; first compound 0.8 µM,0.502
same,relative viability,NCI-H1975; first compound 2.53 µM,0.631
same,relative viability,NCI-H1975; first compound 8 µM,0.678
same,relative viability,NCI-H358; first compound 0.08 µM,0.456
same,relative viability,NCI-H358; first compound 0.253 µM,0.581
same,relative viability,NCI-H358; first compound 0.8 µM,0.523
same,relative viability,NCI-H358; first compound 2.53 µM,0.501
same,relative viability,NCI-H358; first compound 8 µM,0.534
same,relative viability,EPLC-272H; first compound 0.08 µM,0.19
same,relative viability,EPLC-272H; first compound 0.253 µM,0.242
same,relative viability,EPLC-272H; first compound 0.8 µM,0.22
same,relative viability,EPLC-272H; first compound 2.53 µM,0.24
same,relative viability,EPLC-272H; first compound 8 µM,0.248
